Laboratory results published in patent US10526316B2, “Quinoxaline and pyridopyrazine derivatives as PI3Kβ inhibitors” (Janssen Pharmaceutica NV, priority 2015, dated 2020).
Like-named read-outs stand apart in the source and are kept apart here.

Experiments:
PI3Kβ = molecular target: T1, PI3Kβ (Homo sapiens, UniProt P42338); test: Enzyme binding assay (KINOMEscan, DiscoveRx); conditions: PIK3Cβ_h, read-out: Kd PIK3Cβ_h
T1 construct: purchased DiscoveRx Corporation, San Diego (contract service, KINOMEscan)
T1 sequence (P42338 whole entry): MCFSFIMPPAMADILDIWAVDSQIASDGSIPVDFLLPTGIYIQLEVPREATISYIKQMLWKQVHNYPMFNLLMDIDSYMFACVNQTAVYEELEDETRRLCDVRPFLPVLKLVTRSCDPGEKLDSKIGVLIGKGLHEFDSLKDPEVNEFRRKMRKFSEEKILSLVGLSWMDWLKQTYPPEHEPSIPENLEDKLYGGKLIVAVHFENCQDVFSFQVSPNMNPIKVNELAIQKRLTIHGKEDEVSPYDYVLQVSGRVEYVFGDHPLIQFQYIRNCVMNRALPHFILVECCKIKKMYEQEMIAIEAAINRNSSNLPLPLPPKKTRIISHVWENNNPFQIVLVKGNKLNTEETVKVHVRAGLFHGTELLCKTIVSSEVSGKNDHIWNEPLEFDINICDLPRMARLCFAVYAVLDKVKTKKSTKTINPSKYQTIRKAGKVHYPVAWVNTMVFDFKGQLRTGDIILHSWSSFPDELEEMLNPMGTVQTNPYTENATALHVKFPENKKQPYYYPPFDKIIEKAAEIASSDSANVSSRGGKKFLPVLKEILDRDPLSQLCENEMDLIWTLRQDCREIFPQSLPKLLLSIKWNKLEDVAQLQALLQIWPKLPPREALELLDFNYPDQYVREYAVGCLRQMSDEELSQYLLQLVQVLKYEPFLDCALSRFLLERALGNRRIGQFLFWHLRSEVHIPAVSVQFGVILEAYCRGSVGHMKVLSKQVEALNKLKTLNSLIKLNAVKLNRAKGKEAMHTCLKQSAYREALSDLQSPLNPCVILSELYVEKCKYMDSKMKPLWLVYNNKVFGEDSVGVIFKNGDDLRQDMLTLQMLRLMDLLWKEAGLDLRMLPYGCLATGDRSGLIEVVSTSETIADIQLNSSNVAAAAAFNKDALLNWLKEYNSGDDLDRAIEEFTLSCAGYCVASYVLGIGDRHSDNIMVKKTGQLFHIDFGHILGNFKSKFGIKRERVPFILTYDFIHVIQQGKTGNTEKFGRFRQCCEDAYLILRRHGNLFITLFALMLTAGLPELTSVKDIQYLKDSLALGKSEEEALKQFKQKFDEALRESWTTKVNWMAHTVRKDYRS
Outline: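 Compounds are profiled for binding to the kinase using KINOMEscan. The affinity is then reported as an inhibitor Kd in nanomolar units.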

PI3Kδ = molecular target: T2, PI3Kδ (Homo sapiens, UniProt O00329); test: Enzyme binding assay (KINOMEscan, DiscoveRx); conditions: PIK3Cδ_h
T2 construct: purchased DiscoveRx Corporation, San Diego (contract service, KINOMEscan)
T2 sequence (O00329 1-1044): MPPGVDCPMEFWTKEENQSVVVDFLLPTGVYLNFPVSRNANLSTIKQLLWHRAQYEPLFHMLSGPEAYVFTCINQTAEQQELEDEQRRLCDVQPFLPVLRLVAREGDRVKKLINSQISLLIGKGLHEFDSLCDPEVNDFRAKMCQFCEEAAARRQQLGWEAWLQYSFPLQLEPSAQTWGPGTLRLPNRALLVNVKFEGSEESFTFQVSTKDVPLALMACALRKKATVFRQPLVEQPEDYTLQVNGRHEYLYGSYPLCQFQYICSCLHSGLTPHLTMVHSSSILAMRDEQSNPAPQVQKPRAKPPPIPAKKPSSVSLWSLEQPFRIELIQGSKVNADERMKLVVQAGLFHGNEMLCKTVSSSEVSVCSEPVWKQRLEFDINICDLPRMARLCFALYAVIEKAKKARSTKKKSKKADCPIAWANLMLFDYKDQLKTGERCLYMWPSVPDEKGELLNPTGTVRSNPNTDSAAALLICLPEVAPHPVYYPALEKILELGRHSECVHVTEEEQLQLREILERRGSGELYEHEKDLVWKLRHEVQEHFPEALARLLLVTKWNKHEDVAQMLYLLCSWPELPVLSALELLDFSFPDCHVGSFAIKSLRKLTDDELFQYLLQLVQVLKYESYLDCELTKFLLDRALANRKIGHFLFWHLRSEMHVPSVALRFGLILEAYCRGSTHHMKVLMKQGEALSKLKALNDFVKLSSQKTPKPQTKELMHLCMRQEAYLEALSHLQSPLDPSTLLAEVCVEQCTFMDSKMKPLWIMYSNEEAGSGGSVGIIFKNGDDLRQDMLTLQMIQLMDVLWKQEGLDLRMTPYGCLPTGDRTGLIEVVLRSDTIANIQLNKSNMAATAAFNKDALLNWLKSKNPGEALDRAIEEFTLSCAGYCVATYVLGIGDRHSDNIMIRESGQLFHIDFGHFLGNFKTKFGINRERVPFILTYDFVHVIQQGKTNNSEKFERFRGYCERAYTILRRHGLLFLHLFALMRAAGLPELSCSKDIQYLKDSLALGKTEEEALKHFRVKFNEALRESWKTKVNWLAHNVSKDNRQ
Outline: (§1)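 Compounds were profiled by KINOMEscan to obtain kinase binding affinities.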

kinase enzymes [1] = molecular target: T3, kinase enzymes (Homo sapiens, UniProt P48736); test: Enzyme binding assay (KINOMEscan, DiscoveRx), further kinases of Table A; conditions: PIK3Cγ_h
T3 construct: purchased DiscoveRx Corporation, San Diego (contract service, KINOMEscan)
T3 sequence (P48736 whole entry): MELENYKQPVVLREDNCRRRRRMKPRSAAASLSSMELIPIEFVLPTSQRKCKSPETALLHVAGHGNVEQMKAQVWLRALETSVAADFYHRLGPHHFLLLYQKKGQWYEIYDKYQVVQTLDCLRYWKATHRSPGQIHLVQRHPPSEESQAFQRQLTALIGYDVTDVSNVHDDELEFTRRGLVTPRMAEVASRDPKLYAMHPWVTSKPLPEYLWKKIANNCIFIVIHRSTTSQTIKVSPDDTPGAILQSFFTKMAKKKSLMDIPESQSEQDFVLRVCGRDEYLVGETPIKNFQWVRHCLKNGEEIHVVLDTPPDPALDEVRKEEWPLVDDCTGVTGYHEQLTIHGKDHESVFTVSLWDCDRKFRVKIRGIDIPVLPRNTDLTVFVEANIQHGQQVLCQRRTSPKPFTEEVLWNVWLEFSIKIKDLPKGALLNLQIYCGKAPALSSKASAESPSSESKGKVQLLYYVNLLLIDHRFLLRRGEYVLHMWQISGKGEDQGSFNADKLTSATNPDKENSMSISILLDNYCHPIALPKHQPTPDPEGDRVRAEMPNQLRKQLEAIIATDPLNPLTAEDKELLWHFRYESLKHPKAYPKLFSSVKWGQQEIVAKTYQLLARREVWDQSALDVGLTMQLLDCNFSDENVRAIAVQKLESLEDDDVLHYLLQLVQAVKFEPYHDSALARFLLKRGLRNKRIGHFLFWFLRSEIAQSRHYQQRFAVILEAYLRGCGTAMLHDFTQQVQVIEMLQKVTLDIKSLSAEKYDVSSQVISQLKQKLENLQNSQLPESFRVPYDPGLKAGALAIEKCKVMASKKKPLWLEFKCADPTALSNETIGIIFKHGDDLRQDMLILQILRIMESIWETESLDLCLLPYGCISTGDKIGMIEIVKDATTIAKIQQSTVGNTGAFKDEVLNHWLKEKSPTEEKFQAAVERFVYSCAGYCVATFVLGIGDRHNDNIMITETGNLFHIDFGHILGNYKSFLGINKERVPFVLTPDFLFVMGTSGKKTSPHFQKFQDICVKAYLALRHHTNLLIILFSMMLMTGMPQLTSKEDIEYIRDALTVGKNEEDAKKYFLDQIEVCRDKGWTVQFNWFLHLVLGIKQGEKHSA
Outline: as §1

kinase enzymes [2] = molecular target: T4, kinase enzymes (Homo sapiens, UniProt P42345); test: as above; conditions: MTOR_h
T4 construct: purchased DiscoveRx Corporation, San Diego (contract service, KINOMEscan)
Outline: as §1

kinase enzymes [3] = molecular target: T5, kinase enzymes (Homo sapiens, UniProt P42336); test: as above; conditions: PIK3Cα_h
T5 construct: purchased DiscoveRx Corporation, San Diego (contract service, KINOMEscan)
T5 sequence (P42336 whole entry): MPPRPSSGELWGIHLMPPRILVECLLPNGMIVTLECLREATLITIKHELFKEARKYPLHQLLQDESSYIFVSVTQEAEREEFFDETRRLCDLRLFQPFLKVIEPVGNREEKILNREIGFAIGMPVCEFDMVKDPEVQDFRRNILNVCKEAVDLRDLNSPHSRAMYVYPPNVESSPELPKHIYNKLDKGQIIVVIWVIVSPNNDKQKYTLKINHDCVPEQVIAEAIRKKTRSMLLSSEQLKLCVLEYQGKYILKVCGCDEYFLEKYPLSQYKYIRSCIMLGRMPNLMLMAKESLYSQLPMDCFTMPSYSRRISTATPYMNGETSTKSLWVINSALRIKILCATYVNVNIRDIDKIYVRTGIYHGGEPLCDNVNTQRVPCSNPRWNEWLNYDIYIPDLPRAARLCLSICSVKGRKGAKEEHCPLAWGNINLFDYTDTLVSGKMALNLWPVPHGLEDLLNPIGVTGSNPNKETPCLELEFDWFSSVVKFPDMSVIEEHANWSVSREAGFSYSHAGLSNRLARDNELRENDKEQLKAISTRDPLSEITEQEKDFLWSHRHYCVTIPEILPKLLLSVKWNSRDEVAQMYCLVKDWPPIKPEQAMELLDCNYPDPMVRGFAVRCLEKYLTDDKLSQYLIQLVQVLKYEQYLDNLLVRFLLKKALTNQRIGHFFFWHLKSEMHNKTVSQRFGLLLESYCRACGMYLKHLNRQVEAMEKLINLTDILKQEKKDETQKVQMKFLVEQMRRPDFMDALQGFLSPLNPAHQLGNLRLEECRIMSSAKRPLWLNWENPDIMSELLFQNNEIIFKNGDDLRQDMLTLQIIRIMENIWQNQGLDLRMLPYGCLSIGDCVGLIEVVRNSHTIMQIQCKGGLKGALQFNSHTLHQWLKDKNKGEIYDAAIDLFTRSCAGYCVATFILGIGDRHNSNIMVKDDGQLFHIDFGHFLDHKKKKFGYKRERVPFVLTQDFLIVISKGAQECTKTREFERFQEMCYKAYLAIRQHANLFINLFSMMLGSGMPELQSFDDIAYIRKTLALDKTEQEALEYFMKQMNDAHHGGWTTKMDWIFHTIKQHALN
Outline: as §1

[4] = system: Akt phosphorylated at Ser473 in PC-3 cells; test: Cellular assay: phosphorylation of Akt at Ser473 in PC-3 cells (MSD ELISA); format: cell-based; conditions: PC-3 cells, 60 min compound incubation, MSD ELISA, read-out: IC50 pAkt_S473
Outline: (§2)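 After lysis of treated cells (60 min, 37° C, 0.3% DMSO), phospho-Akt levels were measured by MSD electrochemiluminescence ELISA. Potency was derived from concentration-response curves fitted over five concentrations.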

[5] = system: Akt phosphorylated at Thr308 in PC-3 cells; test: Cellular assay: phosphorylation of Akt at Thr308 in PC-3 cells (MSD ELISA); format: cell-based; conditions: PC-3 cells, 60 min compound incubation, MSD ELISA, read-out: IC50 pAkt_Thr308
Outline: as §2

Structure (SMILES)	Kd (PI3Kβ)	Kd (PI3Kδ)	Kd (kinase enzymes [1])	Kd (kinase enzymes [2])	Kd (kinase enzymes [3])	IC50 [4]	IC50 [5]	IC50 ([4]; Homo sapiens, PC-3, 1 h)	IC50 ([5]; Homo sapiens, PC-3, 1 h)
CNCCOCCN(C)C(=O)c1cc(C(C)Nc2cc(F)cc(F)c2)c2nc(N3CCOCC3)cnc2c1 (single isomer, unassigned) [Compound 175]	0.4 nM	112 nM	2570 nM	> 30200 nM	1700 nM	9 nM	11 nM		
C[C@@H]1CN(c2cnc3cc(C(=O)N(C)C)cc(C4CCCN4c4cccc(F)c4)c3n2)CCO1 (single isomer, unassigned) [Compound 29]	1660 nM	21900 nM	> 30200 nM	23400 nM	10200 nM	> 513 nM	> 513 nM		
CN(C(=O)c1cc(NCc2cc(F)cc(F)c2)c2nc(N3CCOCC3)cnc2c1)[C@H]1CCNC1 [Compound 368]	7 nM	1410 nM	> 30200 nM	> 30200 nM	5370 nM			120 nM	~23 nM
CC(Nc1cc(F)c(F)c(F)c1)c1cc(C(=O)NCC(C)(C)O)cc2ncc(N3CCOCC3)nc12 (single isomer, unassigned) [Compound 292b]	14800 nM	> 30200 nM	> 30200 nM	> 30200 nM	> 30200 nM	> 513 nM	> 513 nM		
CC(Nc1cc(F)c(F)c(F)c1)c1cc(C(=O)NCCO)cc2ncc(N3CCOCC3)nc12 (single isomer, unassigned) [Compound 214]	1230 nM	> 30200 nM	4570 nM	> 30200 nM	> 30200 nM	> 513 nM	> 513 nM		
CC(C)NCCN(C)C(=O)c1cc(NCc2cc(F)cc(F)c2)c2nc(N3CCOCC3)cnc2c1 [Compound 389]	5 nM	2190 nM	> 30200 nM	> 30200 nM	3160 nM			39 nM	28 nM
CC(Nc1cc(F)cc(F)c1)c1cc(C(=O)N2CCNC(C(F)(F)F)C2)cc2ncc(N3CCOCC3)nc12 (single isomer, unassigned) [Compound 237b]	74 nM	7760 nM	> 30200 nM	> 30200 nM	8710 nM	> 513 nM	> 513 nM		
Cc1c(F)cccc1CNc1cc(C(=O)N(C)CCNC(C)C)cc2ncc(N3CCOCC3)nc12 [Compound 385]	1 nM	347 nM	6170 nM	16600 nM	933 nM			32 nM	20 nM
CC(Nc1ccc(F)c(F)c1)c1cc(C(=O)NCCN(C)C)cc2ncc(N3CCOCC3)nc12 (stereo not drawn) [Compound 299b]	60 nM	5250 nM	19500 nM	> 30200 nM	13200 nM	> 513 nM	> 513 nM		
CC(C)N1CCCN(C(=O)c2cc(NCc3cc(F)cc(F)c3)c3nc(N4CCOCC4)cnc3c2)CC1 [Compound 360]	42 nM	11700 nM	26900 nM	> 30200 nM	6760 nM			> 513 nM	> 513 nM
COC1CN(Cc2cc(C(C)Nc3cc(F)cc(F)c3)c3nc(N4CCOCC4)cnc3c2)CC1OC (single isomer, unassigned) [Compound 205]	204 nM	17400 nM	> 30200 nM	> 30200 nM	> 30200 nM		> 513 nM	> 513 nM	
CC(C)NCCNC(=O)c1cc(C(C)Nc2ccc(Cl)c(F)c2)c2nc(N3CCOCC3)cnc2c1 (single isomer, unassigned) [Compound 312b]	26 nM	1860 nM	28200 nM	20000 nM	5130 nM	> 513 nM	> 513 nM		
COC(=O)c1cc(C2CCCN2c2cc(F)cc(F)c2)c2nc(N3CCOCC3)cnc2c1 (single isomer, unassigned) [Compound 252]	> 30200 nM	> 30200 nM	> 30200 nM	> 30200 nM	> 30200 nM	> 513 nM	> 513 nM		
CC(Nc1cc(F)c(F)c(F)c1)c1cc(C(=O)N(C)C2CCNC2)cc2ncc(N3CCOCC3)nc12 (single isomer, unassigned) [Compound 296b]	14 nM	9330 nM	> 30200 nM	> 30200 nM	> 30200 nM	468 nM	339 nM		
CNCCNC(=O)c1cc([C@H](C)Oc2cccc(F)c2)c2nc(N3CCOCC3)cnc2c1 [Compound 123]	91 nM	2240 nM	12600 nM	16600 nM	9330 nM			> 513 nM	> 513 nM
CC(Nc1cc(F)cc(F)c1)c1cc(C(=O)NS(=O)(=O)C2CC2)cc2ncc(N3CCOCC3)nc12 (single isomer, unassigned) [Compound 220]	2750 nM	> 30200 nM	25700 nM	6460 nM	25700 nM	> 513 nM	> 513 nM		
CNCC1CCN(C(=O)c2cc(C(C)Nc3cc(F)cc(F)c3)c3nc(N4CCOCC4)cnc3c2)CC1 (stereo not drawn) [Compound 176]	1 nM	102 nM	3470 nM	> 30200 nM	2000 nM			16 nM	15 nM
CC(Nc1cc(F)cc(F)c1)c1cc(CN2CCO[C@H](CO)C2)cc2ncc(N3CCOCC3)nc12 (single isomer, unassigned) [Compound 194]	1820 nM	> 30200 nM	> 30200 nM	> 30200 nM	> 30200 nM			> 513 nM	> 513 nM
CNCCN(C)C(=O)c1cc(N(C)Cc2cccc(F)c2C)c2nc(N3CCOCC3)cnc2c1 [Compound 362]	2 nM	490 nM	9770 nM	19100 nM	2950 nM			229 nM	263 nM
CC(C)NCCNC(=O)c1cc(C(C)Oc2cccc(F)c2)c2nc(N3CCOCC3)cnc2c1 (single isomer, unassigned) [Compound 314a]	417 nM	6030 nM	30200 nM	19100 nM	17400 nM	~407 nM	> 513 nM		
CNCCN(C)C(=O)c1cc(C(C)Oc2cc(F)c(F)c(F)c2)c2nc(N3CCOCC3)cnc2c1 (stereo not drawn) [Compound 379a]	2 nM	813 nM	> 30200 nM	> 30200 nM	9770 nM			~29 nM	22 nM
CC(Oc1cccc(F)c1)c1cc(C(=O)O)cc2ncc(N3CCOCC3)nc12 (single isomer, unassigned) [Compound 257c]	603 nM	3020 nM	3160 nM	1660 nM	1700 nM	> 513 nM	> 513 nM		
CC(Nc1cc(F)cc(F)c1)c1cc(C(=O)NC[C@H](C)O)cc2ncc(N3CCOCC3)nc12 (single isomer, unassigned) [Compound 246a]	4 nM	3890 nM	6760 nM	26900 nM	813 nM			44 nM	24 nM
CC(Nc1cc(F)cc(F)c1)c1cc(C(=O)NCCO)cc2ncc(N3CCOCC3)nc12 (single isomer, unassigned) [Compound 189]	2510 nM	28200 nM	4470 nM	> 30200 nM	> 30200 nM	> 513 nM	> 513 nM		
